Values quoted from earlier work, collected in patent US20070105756A1 (priority 2005, published 2007).

Tested on: sensitive individuals
Conditions: oral route

Compound: NCCc1c[nH]cn1 [histamine]
- histamine concentration known to be biologically active: > 5 nM
